“And” between values parts separate entries of the source, which are not always exact repeats. Identical values can stand only once. Toxic doses and inconclusive results are not listed.
System: L1210 leukemia ip in BDF1 mice, survival T/C
Assay: NCI In Vivo Anticancer Drug Screen. Data for tumor model L1210 Leukemia (intraperitoneal) in B6D2F1 (BDF1) mice
Settings: higher = longer survival
Method in brief: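 Tumor was transplanted into mice, which were then dosed with test compound or vehicle alone. Survival was recorded for each group, and the treated figure was expressed relative to the control figure.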

[1] = endpoint: mean survival time, dose: 100.0 mg/kg/injection, schedule: Q01DX001 (ip), vehicle: saline
[2] = endpoint: mean survival time, dose: 200.0 mg/kg/injection, schedule: Q01DX001 (ip), vehicle: saline
[3] = endpoint: mean survival time, dose: 400.0 mg/kg/injection, schedule: Q01DX001 (ip), vehicle: saline
[4] = endpoint: mean survival time, dose: 100.0 mg/kg/injection, schedule: Q01DX009 (ip), vehicle: Klucel (hydroxypropylcellulose) (HPC)
[5] = endpoint: mean survival time, dose: 100.0 mg/kg/injection, schedule: Q04DX003 (ip), vehicle: Klucel (hydroxypropylcellulose) (HPC)
[6] = endpoint: mean survival time, dose: 200.0 mg/kg/injection, schedule: Q01DX009 (ip), vehicle: Klucel (hydroxypropylcellulose) (HPC)
[7] = endpoint: mean survival time, dose: 200.0 mg/kg/injection, schedule: Q04DX003 (ip), vehicle: Klucel (hydroxypropylcellulose) (HPC)
[8] = endpoint: mean survival time, dose: 50.0 mg/kg/injection, schedule: Q01DX001 (ip), vehicle: saline
[9] = endpoint: mean survival time, dose: 25.0 mg/kg/injection, schedule: Q01DX009 (ip), vehicle: Klucel (hydroxypropylcellulose) (HPC)
[10] = endpoint: mean survival time, dose: 50.0 mg/kg/injection, schedule: Q01DX009 (ip), vehicle: Klucel (hydroxypropylcellulose) (HPC)

With `Cc1cc(N=NC(=N)N)c(C(C)C)cc1NN=C(N)N` the T/C (endpoint: mean survival time, dose: 60.0 mg/kg/injection, schedule: Q01DX Z (oral), vehicle: carboxymethylcellulose (CMC)) was 106 % of control, the T/C (endpoint: mean survival time, dose: 120.0 mg/kg/injection, schedule: Q01DX Z (oral), vehicle: carboxymethylcellulose (CMC)) was 100 % of control and the T/C (endpoint: mean survival time, dose: 480.0 mg/kg/injection, schedule: Q01DX Z (oral), vehicle: carboxymethylcellulose (CMC)) was 102 % of control.

`CNc1ccccc1C(=O)NNS(=O)(=O)c1ccc(C)cc1` was tested, and the T/C [1] was 102 % of control, the T/C [2] was 102 % of control and the T/C [3] was 90 % of control.

For `CC(=O)c1ccc(NCC2N=C(N)N=C(N)N2c2ccccc2)cc1` (centres undefined), the T/C [4] was 97 % of control, the T/C [5] was 98 % of control and the T/C [6] was 96 % of control. The T/C [7] was 90 % of control.

`Nc1nc(/C=C/C=C/c2ccccc2)c(CCCCc2ccccc2)c(=O)[nH]1` was tested, and the T/C (endpoint: mean survival time, dose: 25.0 mg/kg/injection, schedule: Q01DX001 (ip), vehicle: Klucel (hydroxypropylcellulose) (HPC)) was 94 % of control, the T/C (endpoint: mean survival time, dose: 50.0 mg/kg/injection, schedule: Q01DX001 (ip), vehicle: Klucel (hydroxypropylcellulose) (HPC)) was 98 % of control and the T/C (endpoint: mean survival time, dose: 100.0 mg/kg/injection, schedule: Q01DX001 (ip), vehicle: Klucel (hydroxypropylcellulose) (HPC)) was 96 % of control.

`COc1ccc([P+](=S)SS[P+](=S)c2ccc(OC)cc2)cc1` (centres undefined) was tested, and the T/C (endpoint: mean survival time, dose: 100.0 mg/kg/injection, schedule: Q04DX002 (ip), vehicle: saline with Tween-80) was 101 % of control and the T/C (endpoint: mean survival time, dose: 200.0 mg/kg/injection, schedule: Q04DX002 (ip), vehicle: saline with Tween-80) was 97 % of control.

With `CCOCCOCCOC(C)Oc1ccccc1` (centres undefined) the T/C (endpoint: mean survival time, dose: 100.0 mg/kg/injection, schedule: Q04DX002 (ip), vehicle: saline) was 104 % of control, the T/C (endpoint: mean survival time, dose: 200.0 mg/kg/injection, schedule: Q04DX002 (ip), vehicle: saline) was 111 % of control and the T/C (endpoint: mean survival time, dose: 400.0 mg/kg/injection, schedule: Q04DX002 (ip), vehicle: saline) was 104 % of control.

With `CCCN(CCC)CCCCCO` the T/C (endpoint: mean survival time, dose: 50.0 mg/kg/injection, schedule: Q01DX009 (ip), vehicle: saline with Tween-80) was 102 % of control, the T/C (endpoint: mean survival time, dose: 100.0 mg/kg/injection, schedule: Q01DX009 (ip), vehicle: saline with Tween-80) was 106 % of control and the T/C (endpoint: mean survival time, dose: 100.0 mg/kg/injection, schedule: Q04DX003 (ip), vehicle: saline with Tween-80) was 94 % of control. The T/C (endpoint: mean survival time, dose: 200.0 mg/kg/injection, schedule: Q01DX009 (ip), vehicle: saline with Tween-80) was 102 % of control and the T/C (endpoint: mean survival time, dose: 200.0 mg/kg/injection, schedule: Q04DX003 (ip), vehicle: saline with Tween-80) was 102 % of control.

In the case of `Oc1ccc2c(c1)Cc1c-2nc2ccccc2c1Cl`, the T/C [8] is reported as 97 % of control, the T/C [1] is reported as 98 % of control and the T/C [2] is reported as 97 % of control. For the same compound, the T/C [3] was 93 % of control.

With `CCOC(=O)c1ccc2c3c(ccc([N+](=O)[O-])c13)CC2` the T/C [8] was 98 % of control, the T/C [1] was 104 % of control and the T/C [2] was 101 % of control. The T/C [3] was 98 % of control.

`O=C(Nc1ccccc1F)Nc1ccccc1Cl` was tested, and the T/C [9] was 95 % of control, the T/C [10] was 104 % of control and the T/C [4] was 96 % of control. The T/C [5] was 87 % of control, the T/C [6] was 93 % of control and 92 % of control and the T/C [7] was 89 % of control. The T/C (endpoint: mean survival time, dose: 400.0 mg/kg/injection, schedule: Q01DX009 (ip), vehicle: Klucel (hydroxypropylcellulose) (HPC)) was 95 % of control and 91 % of control.

With `COC(=O)/C=C/C(=O)NC(N)=O` the T/C (endpoint: mean survival time, dose: 6.25 mg/kg/injection, schedule: Q01DX009 (ip), vehicle: saline) was 93 % of control, the T/C (endpoint: mean survival time, dose: 12.5 mg/kg/injection, schedule: Q01DX009 (ip), vehicle: saline) was 98 % of control and the T/C (endpoint: mean survival time, dose: 25.0 mg/kg/injection, schedule: Q01DX009 (ip), vehicle: saline) was 101 % of control.

In the case of `Cc1cc(C(=O)O)c(CN)c(=O)n1C`, the T/C (endpoint: mean survival time, dose: 100.0 mg/kg/injection, schedule: Q04DX003 (ip), vehicle: water) is reported as 102 % of control, the T/C (endpoint: mean survival time, dose: 200.0 mg/kg/injection, schedule: Q04DX003 (ip), vehicle: water) is reported as 103 % of control and the T/C (endpoint: mean survival time, dose: 400.0 mg/kg/injection, schedule: Q04DX003 (ip), vehicle: water) is reported as 102 % of control.

For `CCC1C(=O)CCN(C)C1c1cc2ccccc2[nH]1` (centres undefined), the T/C (endpoint: mean survival time, dose: 100.0 mg/kg/injection, schedule: Q01DX001 (ip), vehicle: carboxymethylcellulose (CMC)) was 105 % of control and the T/C (endpoint: mean survival time, dose: 200.0 mg/kg/injection, schedule: Q01DX001 (ip), vehicle: carboxymethylcellulose (CMC)) was 91 % of control.

In the case of `CCCCCCCCCCCCCCOc1ccc(F)cc1F`, the T/C (endpoint: mean survival time, dose: 100.0 mg/kg/injection, schedule: Q04DX002 (ip), vehicle: Klucel (hydroxypropylcellulose) (HPC)) is reported as 111 % of control, the T/C (endpoint: mean survival time, dose: 200.0 mg/kg/injection, schedule: Q04DX002 (ip), vehicle: Klucel (hydroxypropylcellulose) (HPC)) is reported as 107 % of control and the T/C (endpoint: mean survival time, dose: 400.0 mg/kg/injection, schedule: Q04DX002 (ip), vehicle: Klucel (hydroxypropylcellulose) (HPC)) is reported as 96 % of control.

With `COC(=O)Nc1cccc(-c2nc3ccc(NC(=O)OC)cc3c(=O)n2-c2ccccc2)c1` the T/C (endpoint: mean survival time, dose: 6.25 mg/kg/injection, schedule: Q01DX009 (ip), vehicle: Klucel (hydroxypropylcellulose) (HPC)) was 94 % of control and 98 % of control, the T/C (endpoint: mean survival time, dose: 12.5 mg/kg/injection, schedule: Q01DX009 (ip), vehicle: Klucel (hydroxypropylcellulose) (HPC)) was 97 % of control and 101 % of control and the T/C [9] was 102 % of control and 88 % of control. For the same compound, the T/C (endpoint: mean survival time, dose: 25.0 mg/kg/injection, schedule: Q01DX009 (ip), vehicle: other) was 113 % of control, the T/C (endpoint: mean survival time, dose: 25.0 mg/kg/injection, schedule: Q01DX009 (oral), vehicle: Klucel (hydroxypropylcellulose) (HPC)) was 93 % of control and 97 % of control and the T/C (endpoint: mean survival time, dose: 25.0 mg/kg/injection, schedule: Q04DX003 (ip), vehicle: saline) was 97 % of control. The T/C [10] was 120 % of control, the T/C (endpoint: mean survival time, dose: 50.0 mg/kg/injection, schedule: Q01DX009 (ip), vehicle: other) was 114 % of control and the T/C (endpoint: mean survival time, dose: 50.0 mg/kg/injection, schedule: Q01DX009 (oral), vehicle: Klucel (hydroxypropylcellulose) (HPC)) was 102 % of control. For the same compound, the T/C (endpoint: mean survival time, dose: 50.0 mg/kg/injection, schedule: Q04DX003 (ip), vehicle: saline) was 101 % of control, the T/C (endpoint: mean survival time, dose: 100.0 mg/kg/injection, schedule: Q01DX009 (oral), vehicle: Klucel (hydroxypropylcellulose) (HPC)) was 97 % of control and 101 % of control and the T/C (endpoint: mean survival time, dose: 100.0 mg/kg/injection, schedule: Q04DX003 (ip), vehicle: saline) was 103 % of control and 107 % of control. The T/C (endpoint: mean survival time, dose: 200.0 mg/kg/injection, schedule: Q01DX009 (oral), vehicle: Klucel (hydroxypropylcellulose) (HPC)) was 104 % of control and 121 % of control, the T/C (endpoint: mean survival time, dose: 200.0 mg/kg/injection, schedule: Q01DX009 (oral), vehicle: other) was 105 % of control and the T/C (endpoint: mean survival time, dose: 200.0 mg/kg/injection, schedule: Q04DX003 (ip), vehicle: saline) was 110 % of control. For the same compound, the T/C (endpoint: mean survival time, dose: 300.0 mg/kg/injection, schedule: Q01DX009 (oral), vehicle: other) was 102 % of control, the T/C (endpoint: mean survival time, dose: 400.0 mg/kg/injection, schedule: Q01DX009 (oral), vehicle: Klucel (hydroxypropylcellulose) (HPC)) was 116 % of control and 121 % of control and the T/C (endpoint: mean survival time, dose: 400.0 mg/kg/injection, schedule: Q01DX009 (oral), vehicle: other) was 116 % of control. For the same compound, the T/C (endpoint: mean survival time, dose: 400.0 mg/kg/injection, schedule: Q04DX003 (ip), vehicle: saline) was 110 % of control, the T/C (endpoint: mean survival time, dose: 500.0 mg/kg/injection, schedule: Q01DX009 (oral), vehicle: other) was 102 % of control and the T/C (endpoint: mean survival time, dose: 800.0 mg/kg/injection, schedule: Q01DX009 (oral), vehicle: Klucel (hydroxypropylcellulose) (HPC)) was 119 % of control and 120 % of control. The T/C (endpoint: median survival time, dose: 25.0 mg/kg/injection, schedule: Q01DX009 (oral), vehicle: saline) was 103 % of control, the T/C (endpoint: median survival time, dose: 50.0 mg/kg/injection, schedule: Q01DX009 (oral), vehicle: saline) was 102 % of control and the T/C (endpoint: median survival time, dose: 100.0 mg/kg/injection, schedule: Q01DX009 (oral), vehicle: saline) was 104 % of control. For the same compound, the T/C (endpoint: median survival time, dose: 100.0 mg/kg/injection, schedule: Q04DX003 (ip), vehicle: other) was 158 % of control, the T/C (endpoint: median survival time, dose: 100.0 mg/kg/injection, schedule: Q04DX003 (ip), vehicle: saline) was 185 % of control and the T/C (endpoint: median survival time, dose: 200.0 mg/kg/injection, schedule: Q01DX009 (oral), vehicle: saline) was 104 % of control. The T/C (endpoint: median survival time, dose: 200.0 mg/kg/injection, schedule: Q04DX003 (ip), vehicle: Klucel (hydroxypropylcellulose) (HPC)) was 158 % of control, the T/C (endpoint: median survival time, dose: 200.0 mg/kg/injection, schedule: Q04DX003 (ip), vehicle: other) was 119 % of control and the T/C (endpoint: median survival time, dose: 200.0 mg/kg/injection, schedule: Q04DX003 (ip), vehicle: saline with Tween-80) was 154 % of control. For the same compound, the T/C (endpoint: median survival time, dose: 200.0 mg/kg/injection, schedule: Q04DX003 (oral), vehicle: saline) was 113 % of control, the T/C (endpoint: median survival time, dose: 300.0 mg/kg/injection, schedule: Q04DX003 (oral), vehicle: saline) was 123 % of control and the T/C (endpoint: median survival time, dose: 400.0 mg/kg/injection, schedule: Q04DX003 (ip), vehicle: Klucel (hydroxypropylcellulose) (HPC)) was 178 % of control. For the same compound, the T/C (endpoint: median survival time, dose: 400.0 mg/kg/injection, schedule: Q04DX003 (ip), vehicle: saline with Tween-80) was 190 % of control and the T/C (endpoint: median survival time, dose: 400.0 mg/kg/injection, schedule: Q04DX003 (oral), vehicle: saline) was 112 % of control.

Reference: PubChem BioAssay AID248 (DTP/NCI, 2004)
